Source: ChEMBL document CHEMBL5465560, “Selectivity Literature for EUbOPEN Chemogenomic Library” (2024)

Experiments:
[1] = system: Fibroblast growth factor receptor 1 (Homo sapiens), P11362 [V561M]; experiment: Selectivity interaction (LanthaScreen Eu Kinase Binding Assay) EUB0001632a FGFR1; conditions: at 10 µM
[2] = molecular target: Myosin light chain kinase 2, skeletal/cardiac muscle (Homo sapiens) (UniProt Q9H1R3); experiment: Selectivity interaction (Kinase panel (Z-LYTE Assay)) EUB0001632a MYLK2; conditions: at 10 µM
[3] = Selectivity interaction (Eurofins CEREP Diversity Profile (receptors and ion channels)) EUB0000279b CRH; conditions: at 10 µM
[4] = molecular target: Calcium/calmodulin-dependent protein kinase type II subunit alpha (Homo sapiens, UniProt Q9UQM7); experiment: Selectivity interaction (KinomeScan (DiscoverX)) EUB0000666a CAMK2A; conditions: at 10 µM
[5] = molecular target: T1, Cyclin-dependent kinase-like 2 (Homo sapiens) (UniProt Q92772); experiment: Selectivity interaction (KinomeScan (DiscoverX)) EUB0000666a CDKL2; conditions: at 10 µM
T1 sequence (whole entry): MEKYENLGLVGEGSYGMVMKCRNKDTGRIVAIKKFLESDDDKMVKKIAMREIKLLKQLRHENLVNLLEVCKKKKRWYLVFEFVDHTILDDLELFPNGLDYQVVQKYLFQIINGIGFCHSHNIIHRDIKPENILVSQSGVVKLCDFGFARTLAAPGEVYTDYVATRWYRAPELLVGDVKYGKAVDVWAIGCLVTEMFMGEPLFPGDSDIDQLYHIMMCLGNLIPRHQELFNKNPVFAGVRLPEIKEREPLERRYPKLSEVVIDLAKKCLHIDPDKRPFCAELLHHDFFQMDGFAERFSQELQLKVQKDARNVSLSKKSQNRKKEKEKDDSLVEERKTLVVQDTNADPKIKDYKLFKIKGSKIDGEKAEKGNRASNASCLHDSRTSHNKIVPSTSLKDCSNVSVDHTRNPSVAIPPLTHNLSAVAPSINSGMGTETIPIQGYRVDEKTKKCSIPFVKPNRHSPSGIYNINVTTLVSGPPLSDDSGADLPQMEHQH

[6] = molecular target: T2, Mitogen-activated protein kinase 1 (Homo sapiens, UniProt P28482); experiment: Selectivity interaction (Kinase panel (33PanQinase(R) Activity Assay)) EUB0000877a MAPK1
[7] = molecular target: Protein-tyrosine kinase 2-beta (Homo sapiens) (UniProt Q14289); experiment: Selectivity interaction (SelectScreen profiling (Invitrogen)) EUB0000607a PTK2B; conditions: at 2 µM
[8] = molecular target: T3, Dual serine/threonine and tyrosine protein kinase (Homo sapiens) (UniProt Q6XUX3); experiment: Selectivity interaction (KinomeScan (DiscoverX)) EUB0000607a DSTYK; conditions: at 10 µM
T3 sequence (whole entry): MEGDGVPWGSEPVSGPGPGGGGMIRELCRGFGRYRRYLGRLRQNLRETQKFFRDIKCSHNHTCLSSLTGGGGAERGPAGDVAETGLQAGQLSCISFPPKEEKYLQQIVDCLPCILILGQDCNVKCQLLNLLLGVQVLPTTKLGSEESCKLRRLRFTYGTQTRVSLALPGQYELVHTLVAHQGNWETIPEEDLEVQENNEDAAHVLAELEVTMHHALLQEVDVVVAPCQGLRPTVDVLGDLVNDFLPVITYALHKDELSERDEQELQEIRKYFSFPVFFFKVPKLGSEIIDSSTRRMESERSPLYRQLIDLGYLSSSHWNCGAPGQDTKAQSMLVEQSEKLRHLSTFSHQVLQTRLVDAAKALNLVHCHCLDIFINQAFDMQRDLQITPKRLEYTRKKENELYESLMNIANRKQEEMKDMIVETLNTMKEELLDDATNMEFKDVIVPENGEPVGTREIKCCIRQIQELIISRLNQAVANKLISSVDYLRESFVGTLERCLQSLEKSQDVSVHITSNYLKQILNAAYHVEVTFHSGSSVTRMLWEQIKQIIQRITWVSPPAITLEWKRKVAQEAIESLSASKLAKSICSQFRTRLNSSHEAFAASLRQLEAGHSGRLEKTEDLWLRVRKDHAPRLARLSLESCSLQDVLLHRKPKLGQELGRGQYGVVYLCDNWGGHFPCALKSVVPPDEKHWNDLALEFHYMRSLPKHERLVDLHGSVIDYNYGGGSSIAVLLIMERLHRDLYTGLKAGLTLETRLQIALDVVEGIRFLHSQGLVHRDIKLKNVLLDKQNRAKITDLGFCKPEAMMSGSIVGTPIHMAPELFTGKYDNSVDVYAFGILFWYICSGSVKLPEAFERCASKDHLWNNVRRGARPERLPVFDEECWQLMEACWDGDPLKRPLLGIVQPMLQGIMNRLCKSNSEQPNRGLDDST

[9] = molecular target: Phosphatidylinositol 4,5-bisphosphate 3-kinase catalytic subunit alpha isoform (Homo sapiens) (UniProt P42336); experiment: Selectivity interaction (ProQinase) EUB0000171b PIK3CA
[10] = molecular target: Tyrosine-protein kinase JAK2 (Homo sapiens, UniProt O60674); experiment: Selectivity interaction (ProQinase) EUB0000171b JAK2
[11] = molecular target: Casein kinase I isoform gamma-3 (Homo sapiens) (UniProt Q9Y6M4); experiment: Selectivity interaction (ProQinase) EUB0000171b CSNK1G3
[12] = molecular target: Cyclin-dependent kinase 4/cyclin D1 (Homo sapiens) (UniProt P11802+P24385); experiment: Selectivity interaction (KinomeScan (DiscoverX)) EUB0000595a CDK4; type: protein-complex assay; conditions: at 10 µM
[13] = molecular target: Receptor-interacting serine/threonine-protein kinase 2 (Homo sapiens, UniProt O43353); experiment: Selectivity interaction (KinomeScan (DiscoverX)) EUB0000595a RIPK2; conditions: at 10 µM
[14] = molecular target: cAMP-dependent protein kinase catalytic subunit alpha (Homo sapiens, UniProt P17612); experiment: Selectivity interaction (KinomeScan (DiscoverX)) EUB0000595a PRKACA; conditions: at 10 µM
[15] = molecular target: T2, Mitogen-activated protein kinase 1; experiment: Selectivity interaction (KinomeScan (DiscoverX)) EUB0000655a MAPK1; conditions: at 10 µM
[16] = system: Receptor-type tyrosine-protein kinase FLT3 (Homo sapiens), P36888 [UNDEFINED MUTATION]; experiment: Selectivity interaction (KinomeScan (DiscoverX)) EUB0001079a FLT3; conditions: at 1 µM
D(1A) dopamine receptor = D(1A) dopamine receptor (Homo sapiens, UniProt P21728); experiment: Selectivity interaction (GPCR panel (PDSP screen)) EUB0001079a DRD1; conditions: at 10 µM
[17] = molecular target: Lethal(3)malignant brain tumor-like protein 3 (Homo sapiens) (UniProt Q96JM7); experiment: Selectivity interaction (PWWP, WD40, and Tudor domain panel (DSLS measurements, literature)) EUB0000270b L3MBTL3
Aurora kinase B = Aurora kinase B (Homo sapiens, UniProt Q96GD4); conditions: at 10 µM
[18] = molecular target: Casein kinase I isoform gamma-2 (Homo sapiens) (UniProt P78368); conditions: at 10 µM
[19] = molecular target: Activin receptor type-2B (Homo sapiens) (UniProt Q13705); conditions: at 10 µM
[20] = molecular target: Serine/threonine-protein kinase PLK3 (Homo sapiens, UniProt Q9H4B4); experiment: Selectivity interaction (KinomeScan (DiscoverX)) EUB0001619a PLK3; conditions: at 1 µM

T2 sequence (P28482 whole entry): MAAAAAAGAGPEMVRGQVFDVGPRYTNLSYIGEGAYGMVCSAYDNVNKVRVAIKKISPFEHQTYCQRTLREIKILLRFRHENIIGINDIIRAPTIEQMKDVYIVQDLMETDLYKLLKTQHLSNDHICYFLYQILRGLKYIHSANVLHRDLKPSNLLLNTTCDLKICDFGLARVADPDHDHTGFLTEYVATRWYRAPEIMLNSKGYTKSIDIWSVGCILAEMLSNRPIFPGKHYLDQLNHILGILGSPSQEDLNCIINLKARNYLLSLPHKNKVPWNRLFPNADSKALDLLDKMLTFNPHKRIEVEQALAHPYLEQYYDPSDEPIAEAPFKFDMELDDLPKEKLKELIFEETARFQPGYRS
Chain of Phosphatidylinositol 4,5-bisphosphate 3-kinase catalytic subunit alpha isoform (Homo sapiens) (P42336 whole entry, canonical isoform): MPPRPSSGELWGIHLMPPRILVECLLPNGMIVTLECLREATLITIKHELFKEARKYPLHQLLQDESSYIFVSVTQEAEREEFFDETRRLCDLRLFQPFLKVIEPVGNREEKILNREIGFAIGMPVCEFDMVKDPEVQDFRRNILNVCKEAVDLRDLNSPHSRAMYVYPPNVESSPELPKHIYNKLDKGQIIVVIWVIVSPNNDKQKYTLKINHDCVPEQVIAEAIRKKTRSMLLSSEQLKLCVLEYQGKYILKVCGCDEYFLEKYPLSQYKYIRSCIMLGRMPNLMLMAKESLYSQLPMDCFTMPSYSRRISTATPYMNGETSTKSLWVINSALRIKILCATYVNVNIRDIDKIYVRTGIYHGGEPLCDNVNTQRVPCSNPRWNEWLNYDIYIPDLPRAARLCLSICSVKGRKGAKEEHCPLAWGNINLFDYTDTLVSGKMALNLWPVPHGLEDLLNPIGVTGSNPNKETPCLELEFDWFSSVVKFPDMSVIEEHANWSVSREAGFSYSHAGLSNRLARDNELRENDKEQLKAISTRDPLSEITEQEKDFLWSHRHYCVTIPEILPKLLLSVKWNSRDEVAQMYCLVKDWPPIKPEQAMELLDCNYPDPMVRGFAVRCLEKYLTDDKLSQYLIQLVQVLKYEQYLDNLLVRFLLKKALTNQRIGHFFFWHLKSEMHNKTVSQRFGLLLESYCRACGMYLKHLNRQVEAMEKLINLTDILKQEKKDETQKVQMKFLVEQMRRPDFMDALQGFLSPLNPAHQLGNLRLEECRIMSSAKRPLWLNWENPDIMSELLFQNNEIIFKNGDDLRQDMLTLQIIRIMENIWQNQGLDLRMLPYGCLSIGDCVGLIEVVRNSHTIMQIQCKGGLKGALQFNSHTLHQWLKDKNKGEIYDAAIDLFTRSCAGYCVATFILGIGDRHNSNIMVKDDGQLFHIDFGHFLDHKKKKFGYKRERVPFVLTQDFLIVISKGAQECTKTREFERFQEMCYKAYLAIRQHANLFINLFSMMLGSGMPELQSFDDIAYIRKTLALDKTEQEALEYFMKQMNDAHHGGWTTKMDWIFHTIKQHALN
Chain of Tyrosine-protein kinase JAK2 (O60674 whole entry, canonical isoform): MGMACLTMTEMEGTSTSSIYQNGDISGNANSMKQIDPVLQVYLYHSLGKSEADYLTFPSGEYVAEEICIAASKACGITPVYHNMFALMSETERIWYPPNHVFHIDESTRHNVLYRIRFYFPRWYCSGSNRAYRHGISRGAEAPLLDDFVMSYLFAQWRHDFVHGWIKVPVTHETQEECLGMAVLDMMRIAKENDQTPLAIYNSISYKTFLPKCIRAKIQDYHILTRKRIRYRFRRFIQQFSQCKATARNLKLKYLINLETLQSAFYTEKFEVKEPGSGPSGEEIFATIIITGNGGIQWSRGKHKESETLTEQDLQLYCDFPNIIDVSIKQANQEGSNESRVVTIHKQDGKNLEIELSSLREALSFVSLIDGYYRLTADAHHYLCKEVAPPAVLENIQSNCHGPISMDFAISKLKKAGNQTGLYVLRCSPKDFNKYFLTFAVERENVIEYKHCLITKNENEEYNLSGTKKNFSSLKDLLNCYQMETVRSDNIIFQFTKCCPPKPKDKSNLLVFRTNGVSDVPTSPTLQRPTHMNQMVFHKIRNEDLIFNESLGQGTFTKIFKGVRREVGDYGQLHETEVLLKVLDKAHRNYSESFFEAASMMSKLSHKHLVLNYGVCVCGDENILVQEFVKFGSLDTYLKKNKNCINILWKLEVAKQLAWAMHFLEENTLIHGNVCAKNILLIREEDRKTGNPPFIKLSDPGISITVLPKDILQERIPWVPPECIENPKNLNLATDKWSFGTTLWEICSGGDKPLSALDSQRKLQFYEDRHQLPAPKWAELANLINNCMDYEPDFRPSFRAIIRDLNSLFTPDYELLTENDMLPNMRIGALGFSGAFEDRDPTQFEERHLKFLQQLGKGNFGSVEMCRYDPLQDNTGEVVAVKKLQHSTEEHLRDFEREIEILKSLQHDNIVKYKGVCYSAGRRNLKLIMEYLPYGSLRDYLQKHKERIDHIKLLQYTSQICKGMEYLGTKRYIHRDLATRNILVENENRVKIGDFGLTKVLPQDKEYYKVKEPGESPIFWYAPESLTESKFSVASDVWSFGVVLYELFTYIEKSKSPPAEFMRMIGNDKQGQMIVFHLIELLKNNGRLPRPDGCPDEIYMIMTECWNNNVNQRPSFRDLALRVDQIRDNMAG
Chain of Casein kinase I isoform gamma-3 (Homo sapiens) (Q9Y6M4 whole entry, looked up, canonical isoform): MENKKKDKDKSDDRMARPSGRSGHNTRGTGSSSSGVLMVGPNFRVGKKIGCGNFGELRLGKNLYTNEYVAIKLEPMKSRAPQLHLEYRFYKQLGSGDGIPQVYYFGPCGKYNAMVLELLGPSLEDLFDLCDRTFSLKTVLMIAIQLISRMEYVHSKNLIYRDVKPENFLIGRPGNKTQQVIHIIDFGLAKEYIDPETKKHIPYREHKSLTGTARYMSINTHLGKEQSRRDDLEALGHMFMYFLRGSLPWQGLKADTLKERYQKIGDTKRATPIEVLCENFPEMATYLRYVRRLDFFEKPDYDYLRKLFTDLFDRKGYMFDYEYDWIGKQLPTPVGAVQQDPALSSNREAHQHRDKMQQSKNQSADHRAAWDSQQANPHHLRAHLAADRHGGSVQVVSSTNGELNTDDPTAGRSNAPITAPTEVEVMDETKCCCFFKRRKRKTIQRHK
Chain of Casein kinase I isoform gamma-2 (Homo sapiens) (P78368 whole entry, looked up, canonical isoform): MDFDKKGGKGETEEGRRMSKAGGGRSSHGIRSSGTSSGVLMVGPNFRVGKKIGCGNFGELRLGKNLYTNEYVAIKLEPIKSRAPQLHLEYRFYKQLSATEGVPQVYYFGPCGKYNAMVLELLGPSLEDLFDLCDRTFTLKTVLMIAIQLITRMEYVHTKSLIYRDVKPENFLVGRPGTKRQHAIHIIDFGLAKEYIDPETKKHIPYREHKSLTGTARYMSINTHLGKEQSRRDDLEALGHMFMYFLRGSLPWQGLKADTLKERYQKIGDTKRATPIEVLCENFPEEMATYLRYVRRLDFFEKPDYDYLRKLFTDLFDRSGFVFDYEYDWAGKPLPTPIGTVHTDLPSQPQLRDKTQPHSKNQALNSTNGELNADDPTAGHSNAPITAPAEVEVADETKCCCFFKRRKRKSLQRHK
Chain of Lethal(3)malignant brain tumor-like protein 3 (Homo sapiens) (Q96JM7 whole entry, the tested form may be a part): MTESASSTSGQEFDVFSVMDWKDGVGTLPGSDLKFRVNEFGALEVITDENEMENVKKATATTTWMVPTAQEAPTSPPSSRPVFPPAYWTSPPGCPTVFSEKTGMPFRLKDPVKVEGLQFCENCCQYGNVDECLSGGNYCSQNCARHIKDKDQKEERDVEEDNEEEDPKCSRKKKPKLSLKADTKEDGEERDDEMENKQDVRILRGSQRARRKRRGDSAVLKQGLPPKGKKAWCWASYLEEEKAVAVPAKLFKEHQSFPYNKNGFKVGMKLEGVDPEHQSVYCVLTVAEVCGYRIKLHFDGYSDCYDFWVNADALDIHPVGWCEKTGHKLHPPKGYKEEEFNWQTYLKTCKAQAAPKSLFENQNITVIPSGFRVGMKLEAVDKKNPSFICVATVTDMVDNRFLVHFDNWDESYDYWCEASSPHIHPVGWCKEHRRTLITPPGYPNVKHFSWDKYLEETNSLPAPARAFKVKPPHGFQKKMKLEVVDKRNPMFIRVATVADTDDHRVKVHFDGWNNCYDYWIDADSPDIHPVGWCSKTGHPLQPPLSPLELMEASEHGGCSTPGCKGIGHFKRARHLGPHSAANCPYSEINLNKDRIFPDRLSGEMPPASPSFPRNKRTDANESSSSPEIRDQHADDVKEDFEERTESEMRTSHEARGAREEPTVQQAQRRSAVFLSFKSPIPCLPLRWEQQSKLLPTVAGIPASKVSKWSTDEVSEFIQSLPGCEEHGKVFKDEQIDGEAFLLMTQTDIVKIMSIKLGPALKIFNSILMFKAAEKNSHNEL
Chain of Activin receptor type-2B (Homo sapiens) (Q13705 whole entry): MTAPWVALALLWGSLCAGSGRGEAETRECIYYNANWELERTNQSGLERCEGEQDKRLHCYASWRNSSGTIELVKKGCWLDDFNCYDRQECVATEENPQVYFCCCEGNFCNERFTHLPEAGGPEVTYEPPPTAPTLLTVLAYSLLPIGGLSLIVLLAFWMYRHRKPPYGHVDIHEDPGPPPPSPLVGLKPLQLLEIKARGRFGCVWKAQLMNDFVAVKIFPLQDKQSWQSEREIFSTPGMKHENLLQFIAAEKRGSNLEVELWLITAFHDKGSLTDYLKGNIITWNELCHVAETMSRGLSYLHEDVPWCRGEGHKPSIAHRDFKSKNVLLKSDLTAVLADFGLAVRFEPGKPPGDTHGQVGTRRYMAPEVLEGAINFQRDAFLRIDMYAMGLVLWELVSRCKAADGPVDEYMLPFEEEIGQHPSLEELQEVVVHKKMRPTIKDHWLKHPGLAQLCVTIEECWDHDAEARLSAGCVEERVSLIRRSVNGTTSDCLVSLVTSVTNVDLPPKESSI

## Cn1cc(-n2cnc3c(NCc4nc5cc(Cl)c(Cl)cc5[nH]4)nc(N4CCOCC4)nc32)cn1
[1]
  % of inhibition: -8.96%
[2]
  % of control: 3.79%

## CC(=O)c1cc(-c2ccccc2OCC2CC2)c2ncccn12
[3]
  % of control: 118%

## O=C(NOC[C@H](O)CO)c1ccc(F)c(F)c1Nc1ccc(I)cc1F
[4]
  % of control: 100%
[5]
  % of control: 87%

## CCC(=O)N1CC[C@H](Nc2ncnc3c2CN(c2cnc(OC)c(C(F)(F)F)c2)CC3)C1 [LENIOLISIB]
[6]
  IC50: > 10 µM

## CNC(=O)Nc1ccc(-c2nc(N3CC4CCC(C3)O4)c3cnn(C4CCC5(CC4)OCCO5)c3n2)cc1
[7]
  % of inhibition: -3%
[8]
  % of control: 100%

## C=CC(=O)Nc1cccc(C(=O)Nc2ccc(Nc3cc(-c4[nH]c(SC)nc4C)ccn3)cc2)c1
[9]; at 1 µM
  % of control: 118%
[9]; at 5 µM
  % of control: 106%
[10]; at 1 µM
  % of control: 80%
[10]; at 5 µM
  % of control: 72%
[11]; at 1 µM
  % of control: 38%
[11]; at 5 µM
  % of control: 12%

## COCC(=O)NC/C=C/c1ccc2ncnc(Nc3ccc(Oc4ccc(C)nc4)c(C)c3)c2c1 [CP-724714]
[12]
  % of control: 100%
[13]
  % of control: 26%
[14]
  % of control: 100%

## CN(C)CCOc1ccc(-c2nc(-c3ccncc3)c(-c3ccc4c(c3)CC/C4=N\O)[nH]2)cc1
[15]
  % of control: 100%

## Nc1cnc(N2CCc3cc(S(=O)(=O)Nc4c(F)cc(Cl)cc4F)cc(N4CCCC4=O)c32)nc1 [TP-020n]
[16]
  % of control: 100%
D(1A) dopamine receptor
  % of inhibition: -8.35%

## Cc1cc(CN)cc(C)c1-c1ncn(C)c1-c1cncn1C
[17]
  dTagg: 0.2 K

## Cc1cc([C@@H](C)Nc2ccccc2C(=O)O)c2nc(N3CCOCC3)cc(=O)n2c1 [AZD-6482]
Aurora kinase B
  % of control: 96%
[18]
  % of control: 88%
[19]
  % of control: 100%

## N#Cc1cccc(-c2c[nH]c3ncnc(N4CCOCC4)c23)c1
[20]
  % of control: 100%
